Values quoted from earlier work, collected in US9862652B2, “Microencapsulated nitrification inhibitor composition” (DOW AGROSCIENCES LLC, priority 2014, dated 2018).

SMILES: Clc1cccc(C(Cl)(Cl)Cl)n1 [nitrapyrin, 2-chloro-6-(trichloromethyl)pyridine]
- nitrapyrin dissolved by Hallcomid M-8-10 (ambient temperature): about 50 weight percent
- nitrapyrin dissolved by Aromatic 100 (ambient temperature (24° C.)): about 51 weight percent
- nitrapyrin dissolved by cyclohexanone (ambient temperature (24° C.)): about 60 wt %
- nitrapyrin dissolved by Aromatic 150 (−10° C.): about 29 weight percent
